With `COc1ccccc1NC(=O)Nc1ccc(CC(=O)NC(CC(C)C)c2ncc(CCC(=O)O)s2)cc1` (stereo not shown) [Example 16, 3-{2-[1-(2-{4-[3-(2-Methoxy-phenyl)-ureido]-phenyl}-acetylamino)-3-methyl-butyl]-thiazol-5-yl}-propionic acid], the melting point (commonly the temperature of the solid-liquid transition) lay in the range of 197 to 198 °C.

With `Cc1cccc(Cl)c1NC(=O)Nc1ccc(CC(=O)NC(CC(C)C)c2ncc(CCC(=O)O)s2)cc1` (stereo not shown) [Example 21, 3-{2-[1-(2-{4-[3-(2-Chloro-6-methyl-phenyl)-ureido]-phenyl}-acetylamino)-3-methyl-butyl]-thiazol-5-yl}-propionic acid], the melting point is 160 to 162 °C.

`CCOC(=O)CC(=O)c1cc(C(CC(C)C)NC(=O)Cc2ccc(NC(=O)Nc3ccccc3Cl)cc2)no1` (stereo not shown) [Example 26, 3-{3-[1-(2-{4-[3-(2-Chloro-phenyl)-ureido]-phenyl}-acetylamino)-3-methyl-butyl]-isoxazol-5-yl}-3-oxo-propionic acid ethyl ester]: the melting point fell in the range of 150 to 152 °C.

On to `CC(C)CC(NC(=O)Cc1ccc(NC(=O)Nc2ccccc2Cl)cc1)c1ncc(CCC(=O)O)s1` (stereo not shown) [Example 15, 3-{2-[1-(2-{4-[3-(2-Chloro-phenyl)-ureido]-phenyl}-acetylamino)-3-methyl-butyl]-thiazol-5-yl}-propionic acid], for which the melting point is 173 to 175 °C.

`CC(C)CC(NC(=O)Cc1ccc(NC(=O)Nc2ccccc2F)cc1)c1ncc(CCC(=O)O)s1` (stereo not shown) [Example 17, 3-{2-[1-(2-{4-[3-(2-Fluoro-phenyl)-ureido]-phenyl}-acetylamino)-3-methyl-butyl]-thiazol-5-yl}-propionic acid] came in with a melting point of 83 to 85 °C.

For `CC(C)CC(NC(=O)Cc1ccc(NC(=O)Nc2ccccc2Cl)cc1)c1cc(CCC(=O)O)on1` (stereo not shown) [Example 24, 3-{3-[1-(2-{4-[3-(2-Chloro-phenyl)-ureido]-phenyl}-acetylamino)-3-methyl-butyl]-isoxazol-5-yl}propionic acid], the melting point was 143 to 145 °C.

On to `Cc1ccccc1NC(=O)Nc1ccc(CC(=O)NC(CC(C)C)c2cc(/C=C/C(=O)O)on2)cc1` (stereo not shown) [Example 18, 3-[3-(3-Methyl-1-{2-[4-(3-o-tolyl-ureido)-phenyl]-acetylamino}-butyl)-isoxazol-5-yl]-acrylic acid], for which the melting point was in the range of 136 to 138 °C.

On to `CC(C)CC(NC(=O)Cc1ccc(NC(=O)Nc2c(Cl)cccc2Cl)cc1)c1ncc(CCC(=O)O)s1` (stereo not shown) [Example 19, 3-{2-[1-(2-{4-[3-(2,6-Dichloro-phenyl)-ureido]-phenyl}-acetylamino)-3-methyl-butyl]-thiazol-5-yl}-propionic acid], for which the melting point was in the range of 148 to 150 °C.

As to `Cc1ccccc1NC(=O)Nc1ccc(CC(=O)N2CCN(CCC(=O)O)C(=O)C2Cc2ccccc2)cc1` (stereo not shown) [Example 4, (3-Benzyl-2-oxo-4-{[4-(3-o-tolyl-ureido)-phenyl]-acetyl}-piperazin-1-yl)-propionic acid], the melting point was in the range of 103 to 105 °C.

In turn, `Cc1ccccc1NC(=O)Nc1ccc(CC(=O)NC(CC(C)C)c2ncc(CCC(=O)O)o2)cc1` (stereo not shown) [Example 8, [2-(3-Methyl-1-{2-[4-(3-o-tolyl-ureido)-phenyl]-acetylamino}-butyl)oxazol-5-yl]-propionic acid] yielded a melting point of 168 to 170 °C.

Regarding `CC(C)CC(NC(=O)Cc1ccc(NC(=O)Nc2ccccc2)cc1)c1ncc(CCC(=O)O)s1` (stereo not shown) [Example 22, 3-[2-(3-Methyl-1-{2-[4-(3-phenyl-ureido)-phenyl]-acetylamino}-butyl)-thiazol-5-yl]-propionic acid], the melting point was 146 to 148 °C.

Compound `Cc1ccccc1NC(=O)Nc1ccc(CC(=O)NC(CC(C)C)C2=NOC(CCC(=O)O)(CCC(=O)O)C2)cc1` (stereo not shown) [Example 6, 3-[5-(2-Carboxy-ethyl)-3-(3-methyl-1-{2-[4-(3-o-tolyl-ureido)-phenyl]-acetylamino}-butyl)-4,5dihydro-isoxazol-5-yl]-propionic acid] displayed a melting point of 173 to 175 °C.

Take `CC(C)CC(NC(=O)Cc1ccc(NC(=O)Nc2ccccn2)cc1)c1cc(CCC(=O)O)on1` (stereo not shown) [Example 10, [3-(3-Methyl-1-{2-[4-(3-pyridin-2-yl-ureido)-phenyl]-acetylamino}-butyl)-isoxazol-5-yl]-propionic acid]: the melting point is 159 to 161 °C.

In turn, `Cc1ccccc1NC(=O)Nc1ccc(CC(=O)NC2(c3cc(CCC(=O)O)on3)CCCC2)cc1` [Example 9, 3-[3-(1-{2-[4-(3-o-Tolyl-ureido)-phenyl]-acetylamino}-cyclopentyl)-isoxazol-5-yl]-propionic acid] registered a melting point of 195 to 197 °C.

`Cc1cccc(C)c1NC(=O)Nc1ccc(CC(=O)NC(CC(C)C)c2ncc(CCC(=O)O)s2)cc1` (stereo not shown) [Example 20, 3-{2-[1-(2-{4-[3-(2,6-Dimethyl-phenyl)-ureido]-phenyl}-acetylamino)-3-methyl-butyl]-thiazol-5-yl}-propionic acid]: the melting point lay within 125 to 127 °C.

For `CC(C)CC(NC(=O)Cc1ccc(NC(=O)Nc2ccccn2)cc1)c1ncc(CCC(=O)O)s1` (stereo not shown) [Example 11, [2-(3-Methyl-1-{2-[4-(3-pyridin-2-yl-ureido)-phenyl]-acetylamino}-butyl)-thiazol-5-yl]-propionic acid], the melting point was 173 to 175 °C.

The values above are taken from patent US6355662B1, “Non-peptidyl inhibitors of a VLA-4 dependent cell binding useful in treating inflammatory, autoimmune, and respiratory diseases” (Pfizer Inc, priority 1998, dated 2002).
